According to patent US4230850A, “3-Substituted-4-aminoalkoxy-5,6-condensed ring-2-pyranones” (LIPHA, Lyonnaise Industrielle Pharmaceutique, priority 1976, dated 1980):

What was measured:
[1] = tested on: citric acid aerosol cough; test: citric acid aerosol test on the guinea pig (anti-tussive); assay type: in vivo; conditions: administered in equitoxic dose per os
Description: The compounds of the invention were compared with codeine.

femoral artery = femoral artery rate of flow, electromagnetic flow meter, anaesthetised dog; assay type: in vivo; conditions: dog anaesthetised with Pentobarbital, papaverine = 1
Description: The coefficients given in Table IV are expressed relatively to papaverine, which is given the coefficient 1, for the femoral dilation which it causes under similar conditions.

vertebral rate of flow = vertebral rate of flow in the anaesthetised dog; assay type: in vivo; conditions: papaverine = 1
Protocol: Likewise, the vasodilation produced by the compounds of the invention is measured by means of the vertebral rate of flow in the anaesthetised dog.

[2] = tested on: intraventricular coronary artery; test: rate of flow of the intraventricular coronary artery, electromagnetic flow meter, anaesthetised dog; assay type: in vivo; conditions: intravenous, Dipyridamol = 100
Protocol: The rate of flow of the intraventricular coronary artery was measured with an electromagnetic flow meter on the anaesthetised dog.
The different test compounds, administered intravenously, have caused considerable increases in the rate of flow, as reported in Table I below (the standard used for comparison being 2,6-di-[di-(2-hydroxyethyl)amino]-4,8-dipiperidinopyrimido-[5,4-d]-pyrimidine, which has the B.P.C. approved name of "Dipyridamole").

[3] = tested on: rats made hypertensive by the Goldblatt technique; test: decrease in hypertension in rats made hypertensive by the Goldblatt technique; assay type: in vivo, rat; conditions: oral, (HS) or (S) given after value, not defined
Protocol: Anti-hypertensive (hypotensive) activity has been found with the compounds of the invention. With rats made hypertensive by the Goldblatt technique (M. GOLDBLATT, J. LUNCH, R. F. MANZAL and W. W. SUMMERVILLE, J. of Exper. Med. 1934, 59, 347-379), decreases in hypertension were recorded after oral administration of the test compound. By way of example, Table III gives the decreases obtained with some of the compounds.

[4] = tested on: mice placed in a confined atmosphere; test: protection against anoxia: survival time of mice placed in a confined atmosphere; assay type: in vivo, mouse; conditions: oral
Description: As well as the vasodilatory activity, a strong protective action against the effects of anoxia has been found for the compounds of the invention. By way of example, Table VI indicates as a percentage the increase in the survival time caused by oral administration of certain compounds to mice placed in a confined atmosphere.

[5] = tested on: phosphodiesterase of cyclic AMP; test: inhibition of the phosphodiesterase of cyclic AMP in vitro; assay type: biochemical; set-up: unit not given beside the values; conditions: measured in vitro; unit not given
Description: The compounds of the invention are capable of inhibiting the phosphodiesterase of cyclic AMP (adenosine monophosphate).
Table II gives the inhibition indices (ID50), measured in vitro, for some of the compounds of the invention.

SMILES: O=c1oc2c(c(OCCN3CCOCC3)c1-c1ccccc1)CCc1ccccc1-2 [Example 44, 4-(2'-Morpholinoethoxy)-3-phenyl-5,6-dihydro-[h]-benzocoumarin]
- % inhibition on average of number of coughs [1]: 48%

SMILES: COc1ccc(Cc2nccc3cc(OC)c(OC)cc23)cc1OC [Papaverine, reference compound]
- Coefficient/Papaverine (femoral dilation) (femoral artery): 1
- Coefficient/Papaverine (vertebral rate of flow) (vertebral rate of flow): 1

SMILES: O=c1oc2ccccc2c(OCCCN2CCOCC2)c1-c1ccccc1 [Example 16, 4-(3'-Morpholinopropoxy)-3-phenyl-coumarin]
- Coefficient related to Dipyridamol [2]: 250

SMILES: CC(COc1c2c(oc(=O)c1-c1ccccc1)CCCCCC2)CN1CCOCC1 (stereo not drawn) [Example 51, 4-(3'-Morpholino-2'-methylpropoxy)-3-phenyl[1-2-b]-cyclooctano-(2H)-pyran-2-one]
- % inhibition on average of number of coughs [1]: 60%

SMILES: O=c1oc2ccccc2c(OCCN2CCOCC2)c1-c1ccccc1 [Example 2, 4-(2'-Morpholinoethoxy)-3-phenyl-coumarin]
- Coefficient related to Dipyridamol [2]: 150
- Decrease in hypertension in mm.Hg., 3 to 5 hours after administration [3]: -34 mm.Hg.
- Coefficient/Papaverine (vertebral rate of flow) (vertebral rate of flow): 2
- Average % increase in survival time [4]: +41%

SMILES: Cc1ccc2oc(=O)c(-c3ccccc3)c(OCCN3CCOCC3)c2c1 [Example 12, 6-Methyl-4-(2'-morpholinoethoxy)-3-phenyl-coumarin]
- Coefficient related to Dipyridamol [2]: 150

SMILES: O=c1oc2c(c(OCCN3CCOCC3)c1-c1ccccc1)-c1ccccc1C2c1ccccc1 (stereo not drawn) [Example 45, 4-(2'-Morpholinoethoxy)-3,9-diphenyl-[2-1-b]-indeno-[2H]-pyran-2-one]
- Decrease in hypertension in mm.Hg., 3 to 5 hours after administration [3]: -49 mm.Hg.
- Coefficient/Papaverine (femoral dilation) (femoral artery): 60

SMILES: O=c1oc2ccccc2c(OCCN2CCOCC2)c1-c1ccc(F)cc1 [Example 11, 3-(4'-Fluorophenyl)-4-(2"-morpholinoethoxy)-coumarin]
- Average % increase in survival time [4]: +45%

SMILES: O=c1oc2c(c(OCCN3CCOCC3)c1-c1ccccc1)CCCC2 [drawing 27]
- Coefficient/Papaverine (femoral dilation) (femoral artery): 12

SMILES: O=c1oc2cccc(OCCN3CCOCC3)c2c(OCCN2CCOCC2)c1-c1ccccc1 [Example 23, Bis-4,5-(2'-morpholinoethoxy)-3-phenyl-coumarin]
- Coefficient related to Dipyridamol [2]: 300
- Coefficient/Papaverine (femoral dilation) (femoral artery): 6
- Coefficient/Papaverine (vertebral rate of flow) (vertebral rate of flow): 4.5

SMILES: O=c1oc2ccccc2c(OCCN2CCOCC2)c1-c1ccc(Br)cc1 [Example 7, 3-(4'-Bromophenyl)-4-(2"-morpholinoethoxy)-coumarin]
- Average % increase in survival time [4]: +50%

SMILES: OCCN(CCO)c1nc(N2CCCCC2)c2nc(N(CCO)CCO)nc(N3CCCCC3)c2n1 [Dipyridamol, 2,6-di-[di-(2-hydroxyethyl)amino]-4,8-dipiperidinopyrimido-[5,4-d]-pyrimidine, reference compound]
- Coefficient related to Dipyridamol [2]: 100

SMILES: CN1CCN(CCCOc2c(-c3ccccc3)c(=O)oc3ccccc23)CC1 [Example 27, 4-[3-(4"-Methyl-1"-piperazinyl)-propoxy]-3-phenyl-coumarin]
- Coefficient/Papaverine (vertebral rate of flow) (vertebral rate of flow): 3

SMILES: Cc1ccc2oc(=O)c(-c3ccccc3)c(OCCCN3CCOCC3)c2c1
- Coefficient related to Dipyridamol [2]: 100

SMILES: O=c1oc2ccccc2c(OCCN2CCCCC2)c1-c1ccccc1 [Example 3, 4-(2'-Piperidinoethoxy)-3-phenyl-coumarin]
- ID50 (inhibition indices) [5]: 150

SMILES: O=c1oc2c(c(OCCCN3CCOCC3)c1-c1ccccc1)CCCC2 [Example 47, 4-(3'-Morpholinopropoxy)-3-phenyl-5,6,7,8-tetrahydrocoumarin]
- ID50 (inhibition indices) [5]: 200

SMILES: O=c1oc2cccc(O)c2c(OCCN2CCOCC2)c1-c1ccccc1 [Example 30, 4-(2'-Morpholinoethoxy)-5-hydroxy-3-phenyl-coumarin]
- Average % increase in survival time [4]: +65%
- % inhibition on average of number of coughs [1]: 47%

SMILES: O=c1oc2c(c(OCCN3CCOCC3)c1-c1ccccc1)CCCC2 [drawing 39]
- Coefficient/Papaverine (vertebral rate of flow) (vertebral rate of flow): 5.5

SMILES: CCCCc1c(OCCN2CCOCC2)c2c(OCCN3CCOCC3)cc(OCCN3CCOCC3)cc2oc1=O [Example 5, 3-Butyl-4,5,7-tri(2'-morpholinoethoxy)-coumarin]
- Coefficient/Papaverine (vertebral rate of flow) (vertebral rate of flow): 2

SMILES: O=c1oc2c(O)cccc2c(OCCN2CCOCC2)c1-c1ccccc1 [Example 35, 8-Hydroxy-4-(2'-morpholinoethoxy)-3-phenyl-coumarin]
- Decrease in hypertension in mm.Hg., 3 to 5 hours after administration [3]: -44 mm.Hg.
- Coefficient/Papaverine (femoral dilation) (femoral artery): 8
- Coefficient/Papaverine (vertebral rate of flow) (vertebral rate of flow): 10

SMILES: O=c1oc2c(c(OCCN3CCOCC3)c1-c1ccccc1)CCCC2 [drawing 49]
- % inhibition on average of number of coughs [1]: 85%

SMILES: COc1ccc2c(OCCN3CCOCC3)c(-c3ccccc3)c(=O)oc2c1 [Example 20, 7-Methoxy-4-(2'-morpholinoethoxy)-3-phenyl-coumarin]
- Coefficient/Papaverine (femoral dilation) (femoral artery): 12

SMILES: CN(C)CCCOc1c(-c2ccccc2)c(=O)oc2ccccc12 [Example 4, 4-(3'-Dimethylaminopropoxy)-3-phenyl-coumarin]
- ID50 (inhibition indices) [5]: 150
- Coefficient/Papaverine (femoral dilation) (femoral artery): 60
- Coefficient/Papaverine (vertebral rate of flow) (vertebral rate of flow): 6

SMILES: CC(COc1c2c(oc(=O)c1-c1ccccc1)CCCC2)CN1CCOCC1 (stereo not drawn) [Example 46, 4-(3'-Morpholino-2'-methylpropoxy)-3-phenyl-5,6,7,8-tetrahydrocoumarin]
- ID50 (inhibition indices) [5]: 600
- Average % increase in survival time [4]: +40%

SMILES: O=c1oc2c(c(OCCN3CCOCC3)c1-c1ccccc1)CCCC2 [Example 14, 4-(2'-Morpholinoethoxy)-3-phenyl-5,6,7,8-tetrahydro-coumarin]
- Average % increase in survival time [4]: +50%

SMILES: Cc1c(OCCN2CCOCC2)c2ccccc2oc1=O [Example 9, 3-Methyl-4-(2'-morpholinoethoxy)-coumarin]
- Average % increase in survival time [4]: +30%

SMILES: COc1cccc2c(OCCN3CCOCC3)c(-c3ccccc3)c(=O)oc12 [Example 21, 8-Methoxy-4-(2'-morpholinoethoxy)-3-phenyl-coumarin]
- Coefficient/Papaverine (femoral dilation) (femoral artery): 13
- Coefficient/Papaverine (vertebral rate of flow) (vertebral rate of flow): 5

SMILES: CC(COc1c(-c2ccccc2)c(=O)oc2ccccc12)CN1CCOCC1 (stereo not drawn) [Example 19, 4-(3'-Morpholino-2'-methylpropoxy)-3-phenyl-coumarin]
- ID50 (inhibition indices) [5]: 600
- Decrease in hypertension in mm.Hg., 3 to 5 hours after administration [3]: -18 mm.Hg.
- Coefficient/Papaverine (vertebral rate of flow) (vertebral rate of flow): 3
- Average % increase in survival time [4]: +46%

SMILES: O=c1oc2ccccc2c(OCC(O)CN2CCCCC2)c1-c1ccccc1 (stereo not drawn) [Example 37, 4-(3'-Piperidino-2'-hydroxypropoxy)-3-phenyl-coumarin]
- Coefficient/Papaverine (femoral dilation) (femoral artery): 12
- Coefficient/Papaverine (vertebral rate of flow) (vertebral rate of flow): 9

SMILES: COc1ccc2c3c1O[C@H]1[C@@H](O)C=C[C@H]4[C@@H](C2)N(C)CC[C@@]341 [Codeine, reference compound]
- % inhibition on average of number of coughs [1]: 55%
